The target in assay [1] is KDM5A (Jarid1A) (Homo sapiens, UniProt P29375). In words: KDM cell-free assay (AlphaScreen, BPS Bioscience). For orientation: In Alpha technology, singlet oxygen from a donor bead excites a nearby acceptor bead.
Assay [2] deals with KDM4E (JMJD2E) (Homo sapiens, UniProt B2RXH2). In words: KDM cell-free assay (AlphaScreen, BPS Bioscience).
Assay [3] concerns the target KDM5C (Jarid1C) (Homo sapiens, UniProt P41229). In words: KDM cell-free assay (AlphaScreen, BPS Bioscience).
Assay [4] deals with KDM7B (PHF8) (Homo sapiens, UniProt Q9UPP1). In words: KDM cell-free assay (AlphaScreen, BPS Bioscience).
Assay [5] concerns the target KDM3A (JMJD1A) (Homo sapiens, UniProt Q9Y4C1). The assay is described as follows: KDM cell-free assay (AlphaScreen, BPS Bioscience).
Assay [6] deals with KDM5B (Jarid1B) (Homo sapiens, UniProt Q9UGL1). The assay is described as follows: KDM cell-free assay (AlphaScreen, BPS Bioscience).
Assay [7] concerns the target KDM4B (JMJD2B) (Homo sapiens, UniProt O94953). In words: KDM cell-free assay (AlphaScreen, BPS Bioscience).
Assay [8] concerns the target KDM7A (JHDM1D) (Homo sapiens, UniProt Q6ZMT4). In words: KDM cell-free assay (AlphaScreen, BPS Bioscience).
The test system of assay [9] is HP1-mediated heterochromatin gene repression in CiA:Oct4 embryonic stem cells. In words: HP1-recruitment assay dose curve (CiA:Oct4, with CIP-rapamycin), flow cytometry. It counts as cell-based, mouse. The following applies: 48 h with CIP-rapamycin recruitment of HP1; up to 10 µM. The text has this: To elucidate the effect of DFP-based KDM inhibitors on chromatin dynamics, we profiled them in an intracellular assay which measures heterochromatin formation speed. The chromatin in vivo assay (CiA) leverages chemical induced proximity (CIP) to recruit heterochromatin protein 1 (HP1) to a modified Oct4 locus. This reporter system is composed of tandem arrays of Gal4 and zinc finger DNA binding domains in the promoter of one allele of Oct4, where the gene was replaced by a nuclear eGFP reporter. Protein fusions of Gal4-FKBP and FRB-HP1 allow for direct chemical recruitment of HP1 to the CiA:Oct4 reporter locus upon addition of the chemical inducer of proximity (CIP)-rapamycin. After CIP-rapamycin addition, HP1 is recruited to the reporter locus and brings histone methyltransferase enzymes to the chromatin reporter resulting in the repressive H3K9me3 mark being deposited (Fig. 10A). H3K9me3 deposition is the signature mark of heterochromatin and is coupled with gene silencing and loss of GFP expression (Fig. 10B)[33]. Others have shown that H3K4me3 marked nucleosomes impede H3K9 methyltransferase activity. Thus, we postulate that the active H3K4me3 mark must be removed by KDM enzymes as part of the transformation from euchromatin to heterochromatin. Inhibition of KDMs, specifically those targeting H3K4me3, would result in a decrease in H3K9me3 accumulation, which would be measured in our assay as an increase in GFP positive cells.
To determine the effect of DFP-based KDM inhibitors on HP1-mediated gene repression, we treated CiA:Oct4 embryonic stem (ES) cells with doses of representative compounds ranging from 10 µM–250 nM for 48 h with CIP-rapamycin recruitment of HP1 (Fig. 10C). […] The percentage of GFP(+) cells was determined by flow cytometry as indicated in representative histograms (Supplemental Fig. S8).
Day 0, CiA:Oct4 N118/163 cells were grown in ES media and seeded at a density of 10,000 cells per well in 100 μL media (100,000 cells mL^−1) on gelatin coated 96 well plates. Day 1, culture media was aspirated and replaced with 100 µL ES media containing +/− 6 nM rapamycin. 10 µM, 5 µM, 2.5 µM, 1 µM, 500 nM, and 250 nM concentrations of compound or DMSO were added using a TTP Labtech Mosquito HTS liquid handler. Days 2, fresh ES media +/− rapamycin and compound were added as in Day 1. Day 3, cells were washed with PBS and trypsinized using 0.25% trypsin-EDTA. Trypsin was quenched with serum. Cells were resuspended by pipetting in preparation for flow cytometry analysis.
Flow cytometry data was acquired using the Intellicyt iQue Screener and analyzed with FlowJo software.
The CiA:Oct4 recruitment system in mouse embryonic stem cells contains Gal4 and Zinc finger DNA binding arrays and a downstream nuclear eGFP gene in place of a single Oct4 allele as previously described.^30 The CiA:Oct4 N118/N163 cell line containing viral integrations of N118 and N163 plasmids (N118- nLV EF-1α-Gal-FKBPx1-HA-PGK-Blast, N163- nLV EF-1α-HP1α (CS)-Frbx2(Frb+FrbWobb)-V5-PGK-Puro) was used for inhibition of HP1-mediated heterochromatin studies. All plasmids are freely available on addgene.
HP1-Recruitment Assay Dose Curve. Day 0, CiA:Oct4 N118/163 cells were grown in ES media and seeded at a density of 10,000 cells per well in 100 µL media (100,000 cells mL^-1) on gelatin coated 96 well plates. Day 1, culture media was aspirated and replaced with 100 µL ES media containing +/- 6 nM rapamycin. 10 µM, 5 µM, 2.5 µM, 1 µM, 500 nM, and 250 nM concentrations of compound or DMSO were added using a TTP Labtech Mosquito HTS liquid handler. Days 2, fresh ES media +/- rapamycin and compound were added as in Day 1. Day 3, cells were washed with PBS and trypsinized using 0.25% trypsin-EDTA. Trypsin was quenched with serum. Cells were resuspended by pipetting in preparation for flow cytometry analysis.
Flow Cytometry and Analysis.
(A flow cytometer gives signals particle by particle.)

Where only a bound is given, the exact number is not on record here.

The record followed here is publication PMC6423038, “Deferiprone: Pan-selective Histone Lysine Demethylase Inhibition Activity and Structure Activity Relationship Study” (Scientific Reports, 2019).

Sequence of KDM3A (JMJD1A) (Q9Y4C1 whole entry): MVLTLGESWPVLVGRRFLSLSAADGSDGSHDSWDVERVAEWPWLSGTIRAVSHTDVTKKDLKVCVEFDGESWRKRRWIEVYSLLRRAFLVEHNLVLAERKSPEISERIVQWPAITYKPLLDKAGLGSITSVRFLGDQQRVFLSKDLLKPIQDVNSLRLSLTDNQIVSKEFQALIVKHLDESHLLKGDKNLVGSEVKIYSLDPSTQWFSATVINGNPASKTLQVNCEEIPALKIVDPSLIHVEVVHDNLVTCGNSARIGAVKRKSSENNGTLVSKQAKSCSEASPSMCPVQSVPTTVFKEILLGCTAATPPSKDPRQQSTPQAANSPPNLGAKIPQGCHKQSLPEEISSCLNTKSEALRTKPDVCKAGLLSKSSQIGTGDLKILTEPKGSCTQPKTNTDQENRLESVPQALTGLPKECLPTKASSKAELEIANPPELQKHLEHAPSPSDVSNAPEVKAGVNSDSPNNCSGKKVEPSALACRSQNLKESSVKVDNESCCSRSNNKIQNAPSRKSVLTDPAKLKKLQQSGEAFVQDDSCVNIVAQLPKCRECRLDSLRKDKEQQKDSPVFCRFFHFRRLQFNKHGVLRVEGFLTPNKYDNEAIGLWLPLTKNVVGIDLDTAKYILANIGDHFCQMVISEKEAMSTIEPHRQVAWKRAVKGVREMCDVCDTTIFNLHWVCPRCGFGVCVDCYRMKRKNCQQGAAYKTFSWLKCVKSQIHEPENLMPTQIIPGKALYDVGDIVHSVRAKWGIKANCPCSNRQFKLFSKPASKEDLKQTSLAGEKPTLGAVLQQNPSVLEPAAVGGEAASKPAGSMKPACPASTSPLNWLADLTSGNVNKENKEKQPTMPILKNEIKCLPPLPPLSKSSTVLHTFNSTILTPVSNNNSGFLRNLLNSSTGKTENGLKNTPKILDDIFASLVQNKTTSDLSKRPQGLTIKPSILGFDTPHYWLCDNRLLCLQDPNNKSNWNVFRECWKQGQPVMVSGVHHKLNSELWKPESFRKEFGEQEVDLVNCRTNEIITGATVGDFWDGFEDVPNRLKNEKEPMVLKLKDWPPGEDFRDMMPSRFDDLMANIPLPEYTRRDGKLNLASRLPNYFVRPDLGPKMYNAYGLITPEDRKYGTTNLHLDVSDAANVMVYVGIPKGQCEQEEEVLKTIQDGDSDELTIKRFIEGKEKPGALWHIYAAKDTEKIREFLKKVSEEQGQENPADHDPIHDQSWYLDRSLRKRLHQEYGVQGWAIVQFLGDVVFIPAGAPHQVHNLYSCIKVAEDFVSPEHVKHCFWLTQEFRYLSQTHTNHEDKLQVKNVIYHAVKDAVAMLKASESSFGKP
Sequence of KDM7B (PHF8) (Q9UPP1 whole entry): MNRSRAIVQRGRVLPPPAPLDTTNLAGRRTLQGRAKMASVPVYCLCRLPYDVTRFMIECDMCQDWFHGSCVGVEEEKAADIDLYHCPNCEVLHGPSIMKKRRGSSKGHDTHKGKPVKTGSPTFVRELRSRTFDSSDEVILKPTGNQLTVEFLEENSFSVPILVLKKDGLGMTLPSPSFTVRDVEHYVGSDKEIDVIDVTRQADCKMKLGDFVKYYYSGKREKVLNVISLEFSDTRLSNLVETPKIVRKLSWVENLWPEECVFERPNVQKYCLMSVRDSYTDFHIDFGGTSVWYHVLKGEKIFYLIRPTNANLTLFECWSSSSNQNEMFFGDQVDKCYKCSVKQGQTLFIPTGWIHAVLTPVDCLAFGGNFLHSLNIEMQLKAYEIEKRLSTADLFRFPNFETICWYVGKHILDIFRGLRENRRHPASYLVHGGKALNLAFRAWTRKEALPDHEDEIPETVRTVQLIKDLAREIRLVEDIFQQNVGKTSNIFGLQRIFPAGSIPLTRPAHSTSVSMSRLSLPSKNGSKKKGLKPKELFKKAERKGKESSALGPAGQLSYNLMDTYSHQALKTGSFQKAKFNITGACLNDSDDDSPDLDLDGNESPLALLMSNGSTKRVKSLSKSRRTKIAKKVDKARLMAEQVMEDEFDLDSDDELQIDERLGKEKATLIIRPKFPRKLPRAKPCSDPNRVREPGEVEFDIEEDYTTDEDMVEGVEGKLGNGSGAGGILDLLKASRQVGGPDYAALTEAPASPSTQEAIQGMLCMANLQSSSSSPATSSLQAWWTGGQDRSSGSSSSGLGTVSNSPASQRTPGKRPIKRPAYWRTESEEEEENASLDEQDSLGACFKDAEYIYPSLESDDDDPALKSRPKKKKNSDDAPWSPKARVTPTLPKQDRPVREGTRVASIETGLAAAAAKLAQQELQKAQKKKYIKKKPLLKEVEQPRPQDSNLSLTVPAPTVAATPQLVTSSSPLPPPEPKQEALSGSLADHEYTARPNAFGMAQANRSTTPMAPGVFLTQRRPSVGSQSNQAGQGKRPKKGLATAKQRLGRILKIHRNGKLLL
Sequence of KDM4E (JMJD2E) (B2RXH2 whole entry): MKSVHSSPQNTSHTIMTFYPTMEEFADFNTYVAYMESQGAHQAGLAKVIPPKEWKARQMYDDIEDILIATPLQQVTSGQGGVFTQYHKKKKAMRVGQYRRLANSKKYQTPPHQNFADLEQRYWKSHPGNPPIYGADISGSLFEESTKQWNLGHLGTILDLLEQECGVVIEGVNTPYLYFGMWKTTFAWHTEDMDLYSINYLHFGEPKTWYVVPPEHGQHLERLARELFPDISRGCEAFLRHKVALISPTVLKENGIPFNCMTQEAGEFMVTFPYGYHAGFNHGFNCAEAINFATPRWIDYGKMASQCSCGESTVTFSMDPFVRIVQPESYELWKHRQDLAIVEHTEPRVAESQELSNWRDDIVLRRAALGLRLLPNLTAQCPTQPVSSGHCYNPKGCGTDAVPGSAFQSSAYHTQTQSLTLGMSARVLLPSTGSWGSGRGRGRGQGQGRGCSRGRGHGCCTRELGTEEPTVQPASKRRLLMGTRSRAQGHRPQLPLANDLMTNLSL
Sequence of KDM5C (Jarid1C) (P41229 whole entry): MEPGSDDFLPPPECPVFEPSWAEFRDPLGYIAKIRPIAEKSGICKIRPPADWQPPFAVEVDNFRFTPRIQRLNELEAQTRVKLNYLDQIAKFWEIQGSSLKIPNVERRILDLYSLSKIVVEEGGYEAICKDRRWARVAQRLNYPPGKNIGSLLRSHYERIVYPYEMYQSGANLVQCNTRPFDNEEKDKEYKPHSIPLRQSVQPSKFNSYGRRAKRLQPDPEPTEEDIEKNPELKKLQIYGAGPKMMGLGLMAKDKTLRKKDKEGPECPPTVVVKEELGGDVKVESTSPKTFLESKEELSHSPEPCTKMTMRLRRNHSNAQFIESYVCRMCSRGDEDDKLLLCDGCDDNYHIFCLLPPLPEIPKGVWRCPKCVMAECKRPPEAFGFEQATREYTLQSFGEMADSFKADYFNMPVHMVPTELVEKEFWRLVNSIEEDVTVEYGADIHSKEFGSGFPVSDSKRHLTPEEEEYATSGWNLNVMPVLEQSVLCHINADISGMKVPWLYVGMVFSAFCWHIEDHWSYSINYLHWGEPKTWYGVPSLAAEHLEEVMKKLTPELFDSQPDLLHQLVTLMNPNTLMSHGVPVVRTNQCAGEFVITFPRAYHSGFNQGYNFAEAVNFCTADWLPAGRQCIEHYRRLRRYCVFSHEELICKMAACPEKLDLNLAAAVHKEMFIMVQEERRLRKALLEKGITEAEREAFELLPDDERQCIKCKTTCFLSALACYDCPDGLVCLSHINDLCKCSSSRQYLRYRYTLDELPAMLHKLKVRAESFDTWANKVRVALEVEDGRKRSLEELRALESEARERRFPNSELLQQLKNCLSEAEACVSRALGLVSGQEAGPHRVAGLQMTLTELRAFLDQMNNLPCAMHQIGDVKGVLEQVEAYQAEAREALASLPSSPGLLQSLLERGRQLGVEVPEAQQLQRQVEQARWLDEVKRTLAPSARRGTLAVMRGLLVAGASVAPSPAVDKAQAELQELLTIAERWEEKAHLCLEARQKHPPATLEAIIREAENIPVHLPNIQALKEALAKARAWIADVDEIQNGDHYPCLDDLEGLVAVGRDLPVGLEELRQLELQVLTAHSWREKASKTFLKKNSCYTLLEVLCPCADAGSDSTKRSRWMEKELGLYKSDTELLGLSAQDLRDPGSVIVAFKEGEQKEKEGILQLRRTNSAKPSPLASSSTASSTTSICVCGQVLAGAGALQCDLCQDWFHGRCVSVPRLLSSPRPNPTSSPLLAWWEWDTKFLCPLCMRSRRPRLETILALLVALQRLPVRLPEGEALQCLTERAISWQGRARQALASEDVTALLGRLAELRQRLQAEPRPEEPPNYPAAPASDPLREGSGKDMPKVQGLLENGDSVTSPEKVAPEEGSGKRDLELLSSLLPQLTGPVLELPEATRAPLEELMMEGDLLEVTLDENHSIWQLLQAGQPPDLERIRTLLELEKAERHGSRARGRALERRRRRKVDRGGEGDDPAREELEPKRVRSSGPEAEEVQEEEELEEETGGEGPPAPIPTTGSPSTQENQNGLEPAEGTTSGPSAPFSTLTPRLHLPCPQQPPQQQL

One may read the IC50 as the concentration that inhibits the measured activity by half. Higher therefore signals weaker potency in that assay. As for `Cc1c(O)c(=O)ccn1C` [DFP, Deferiprone], the IC50 is more than 25 µM in assay [1]; more than 25 µM in assay [2]; 5.6 µM in assay [3]; 15.6 µM in [4]; more than 25 µM in assay [5]; more than 25 µM in [6]. Further, the IC50 was more than 25 µM in assay [7] and 16.6 µM in assay [8]. Moreover, in assay [9], the “inhibition of heterochromatin formation” value is listed as “did not inhibit heterochromatin formation”.
